This is an account of results in article PMC9632963, “Preclinical characterization and phase I clinical trial of CT053PTSA targets MET, AXL, and VEGFR2 in patients with advanced solid tumors” (Frontiers in Immunology, 2022).

Test [1] concerns SNU-601. The test is described as follows: Cell proliferation assay (CellTiter-Glo, 72 hours). It is filed as cell-based. Particulars: Homo sapiens, read-out: IC50 anti-proliferative.
Description: These cell lines were obtained from American Type Culture Collection (ATCC), Japanese Collection of Research Bioresources (JCRB), Shanghai Institutes of Biological Sciences, CAS (SIBS), Korean Cell Line Bank (KCLB) or National Institutes of Health (NIH). […] Cell viability was measured after 72 hours using a CellTiter-Glo Luminescent Cell Viability Assay Kit (Promega, WI, USA) according to the manufacturer’s instructions.
Test [2] deals with MKN-45 CDX xenografts. In words: In vivo efficacy study, CDX model. Set-up: species or system BALB/cA nude mice. Here is the method: (§1) Human tumor xenografts were established in female BALB/cA nude mice (5-6 weeks old) by administering the SNU-5 and MKN-45 cells, which have high MET expression levels. For efficacy studies in patient-derived tumor xenograft (PDX) mouse models, MET-overexpressing GA0046 and GA3121 tumors (obtained from Crownbio, CA, USA) were established by directly implanting surgical tissues into immunodeficient mice. […] The subcutaneous tumor size and body weight were measured twice weekly. The tumor volumes were determined by measuring two perpendicular diameters with calipers and calculated as (length × width^2)/2.

The subject of test [3] is SNU-5 CDX xenografts. The test is described as follows: In vivo efficacy study, CDX model. More on the design: species or system BALB/cA nude mice. Here is the method:
as §1

Where [4] appears, read: 3 mg/kg once per day oral gavage.

Where only a bound is given, the exact number is not on record here.

As for `Cc1c(C(=O)Nc2ccc(Oc3ccnc4cc(OCC(C)(C)O)ccc34)c(F)c2)c(=O)n(-c2ccccc2)n1C` [CT053], the 50% inhibitory concentration (IC50) in test [1] is above 10 µM. Further, the tumour growth inhibition (TGI) in test [2] (setting [4]) was determined as 31%; in test [2] (10 mg/kg once per day oral gavage), 85%; in test [2] (20 mg/kg once per day oral gavage), 97%; in test [3] (1 mg/kg once per day oral gavage) it was 32%; in test [3] (setting [4]), 87%.
